Results: article PMC3914206

How the values were obtained:
panel of 442 kinases [1] = biological target: T1, panel of 442 kinases (Homo sapiens, UniProt P45985); type: binding; conditions: Compound Concentration 10 µM
T1 construct: purchased KINOMEscan
T1 sequence (P45985 1-399): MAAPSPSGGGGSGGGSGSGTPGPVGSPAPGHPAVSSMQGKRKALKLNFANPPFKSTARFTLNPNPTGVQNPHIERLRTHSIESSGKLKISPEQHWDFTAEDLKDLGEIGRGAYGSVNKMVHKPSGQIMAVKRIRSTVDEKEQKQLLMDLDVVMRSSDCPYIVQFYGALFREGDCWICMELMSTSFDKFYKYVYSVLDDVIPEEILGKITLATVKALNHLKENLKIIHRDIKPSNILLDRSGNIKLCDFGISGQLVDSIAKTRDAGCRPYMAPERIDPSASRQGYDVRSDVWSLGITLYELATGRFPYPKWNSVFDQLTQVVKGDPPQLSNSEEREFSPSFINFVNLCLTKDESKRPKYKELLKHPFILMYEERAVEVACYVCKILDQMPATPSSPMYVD
From the text: (§1) We assessed the selectivity of members of this scaffold using the KINOMEscan methodology across a near comprehensive panel of 442 kinases [[18,27]].

panel of 442 kinases [2] = biological target: T2, panel of 442 kinases (Homo sapiens, UniProt Q8NFD2); type: binding; conditions: Compound Concentration 10 µM
T2 construct: purchased KINOMEscan
T2 sequence (Q8NFD2 1-765): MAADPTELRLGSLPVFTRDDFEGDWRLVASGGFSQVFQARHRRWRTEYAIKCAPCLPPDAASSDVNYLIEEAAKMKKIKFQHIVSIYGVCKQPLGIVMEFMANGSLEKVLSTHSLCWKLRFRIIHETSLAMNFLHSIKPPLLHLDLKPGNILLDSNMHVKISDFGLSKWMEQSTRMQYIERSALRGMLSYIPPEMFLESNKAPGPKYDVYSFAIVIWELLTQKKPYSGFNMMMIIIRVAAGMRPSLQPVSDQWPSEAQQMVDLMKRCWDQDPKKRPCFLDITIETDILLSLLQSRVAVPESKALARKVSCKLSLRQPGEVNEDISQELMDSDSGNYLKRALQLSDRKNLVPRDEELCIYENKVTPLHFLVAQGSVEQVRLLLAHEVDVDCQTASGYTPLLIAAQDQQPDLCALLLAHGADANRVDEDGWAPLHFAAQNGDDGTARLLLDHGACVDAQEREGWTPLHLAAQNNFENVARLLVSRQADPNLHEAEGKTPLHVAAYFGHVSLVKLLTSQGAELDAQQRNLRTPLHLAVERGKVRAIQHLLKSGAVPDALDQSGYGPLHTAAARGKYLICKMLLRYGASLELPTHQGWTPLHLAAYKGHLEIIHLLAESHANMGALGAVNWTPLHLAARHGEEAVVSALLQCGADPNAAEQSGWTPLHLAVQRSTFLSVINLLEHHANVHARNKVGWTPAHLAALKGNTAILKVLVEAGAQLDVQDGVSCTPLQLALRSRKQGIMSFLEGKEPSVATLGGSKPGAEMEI
From the text: as §1

| Compound | KINOMEscan: MEK4 (panel of 442 kinases [1]) | KINOMEscan: ANKK1 (panel of 442 kinases [2]) |
| --- | --- | --- |
| COc1cc(C(=O)N2CCC(N3CCN(C)CC3)CC2)ccc1Nc1ncc2c(n1)N(C)c1ccccc1C(=O)N2C [15 (LRRK2-IN-1)] | 100 | 100 |
| COc1cc(C(=O)N2CCC(N3CCN(C)CC3)CC2)ccc1Nc1ncc2c(n1)N(C1CCCC1)c1ccccc1C(=O)N2C [Compound 25, 11-cyclopentyl-2-((2-methoxy-4-(4-(4-methylpiperazin-1-yl)piperidine-1-carbonyl)phenyl)amino)-5-methyl-5H-benzo[e]pyrimido[5,4-b][1,4]diazepin-6(11H)-one] | 100 | 85 |
| CCOc1cc(C(=O)N2CCC(N3CCN(C)CC3)CC2)ccc1Nc1ncc2c(n1)N(C1CCCC1)c1ccccc1C(=O)N2C [Compound 26] | 100 | 84 |
